The values below come from ChEMBL document CHEMBL2390826, “Discovery of potent and efficacious urea-containing nicotinamide phosphoribosyltransferase (NAMPT) inhibitors with reduced CYP2C9 inhibition properties” (Bioorg Med Chem Lett, 2013).

Usually solubility stands for the dissolved amount per volume that the medium holds. High values mean a readily soluble substance, low ones a poorly soluble substance. In general, Papp A→B refers to how fast a substance crosses the layer from the apical side. For orientation: Tmax means the time at which the peak concentration occurs. What is called Cmax is the peak of the concentration-time curve. Usually clearance stands for a measure of how efficiently the substance is removed, as volume per time. Low values mean inefficient removal, high ones efficient removal. By bioavailability is commonly meant the share of a dose that reaches the circulation, judged against a reference dose that is usually intravenous. Higher therefore signals much systemic uptake. In general, half-life refers to the time needed for the level to fall by half in the phase considered.

Data set [1] can be described thus: Hepatic clearance in human liver microsomes at 1 uM after 20 to 60 mins by LC-MS/MS analysis. It is filed as ADME, Microsome. For orientation: Microsomes from liver hold many membrane-bound enzymes, among them those of drug oxidation.
The nature of data set [2]: Hepatic clearance in CD-1 mouse liver microsomes at 1 uM after 20 to 60 mins by LC-MS/MS analysis. It is filed as ADME, Microsome.
The nature of data set [3]: Hepatic clearance in CD-1 mouse hepatocytes at 1 uM by LC-MS/MS analysis. It is filed as ADME, cell-based, Liver, Hepatocyte.
The nature of data set [4]: Aqueous solubility of the compound in PBS buffer at 100 uM after 24 hrs by LC/CLND analysis. It is filed as physicochemical.
Data set [5] can be described thus: Apparent permeability from apical to basolateral side in MDCK cells at 10 uM by LC-MS/MS analysis. It is filed as ADME, cell-based, Canis lupus familiaris. As to conditions: dog.
Data set [6] can be described thus: Tmax in BALB/c mouse at 5 mg/kg, po by LC/MS/MS analysis. It is filed as ADME, organism-based. The arrangement: dose 5 mg/kg, route oral. As to conditions: in vivo.
Data set [7] is described as follows: Cmax in BALB/c mouse at 5 mg/kg, po by LC/MS/MS analysis. It is filed as ADME, organism-based. The arrangement: dose 5 mg/kg, route oral. As to conditions: in vivo.
The nature of data set [8]: Clearance in BALB/c mouse at 1 mg/kg, iv by LC/MS/MS analysis. It is filed as ADME, organism-based. Further details: dose 1 mg/kg, route intravenous. As to conditions: in vivo.
Data set [9] in a line: Volume of distribution at steady state in BALB/c mouse at 1 mg/kg, iv by LC/MS/MS analysis. It is filed as ADME, organism-based. Further details: dose 1 mg/kg, route intravenous. As to conditions: in vivo, read-out: Vdss.
A short description of data set [10]: Oral bioavailability in BALB/c mouse at 5 mg/kg by LC/MS/MS analysis. It is filed as ADME, organism-based. As to conditions: in vivo.
Data set [11] can be described thus: Half life in BALB/c mouse at 1 mg/kg, iv by LC/MS/MS analysis. It is filed as ADME, organism-based. The arrangement: dose 1 mg/kg, route intravenous. As to conditions: in vivo.
Data set [12] in a line: Half life in BALB/c mouse at 5 mg/kg, po by LC/MS/MS analysis. It is filed as ADME, organism-based. The arrangement: dose 5 mg/kg, route oral. As to conditions: in vivo.

Converted amounts (≈) assume the structure as drawn.

On to `O=C(NCc1cccnc1)Nc1ccc(S(=O)(=O)N2CCOCC2)cc1`, for which the CLhep predicted at 1 µM in data set [1] is 6 mL/min/kg.
Still for that read-out and setting: for `O=C(NCc1cccnc1)Nc1ccc(S(=O)(=O)c2ccccc2)cc1` the value was 8 mL/min/kg.
The same measure, in the same setting: the same measure for `O=C(NCc1cccnc1)Nc1ccc(S(=O)(=O)N2C3CCC2COC3)cc1`: 8 mL/min/kg.
As to `O=C(NCc1cccnc1)Nc1ccc(S(=O)(=O)N2C[C@@H]3C[C@H]2CO3)cc1`, the CLhep predicted at 1 µM in [1] is 3 mL/min/kg.
As for `O=C(NCc1cccnc1)Nc1ccc(S(=O)(=O)N2CCC23COC3)cc1`, the CLhep predicted at 1 µM in data set [1] was 8 mL/min/kg.
In the case of `O=C(NCc1cccnc1)Nc1ccc(S(=O)(=O)N2CC3(COC3)C2)cc1`, the CLhep predicted at 1 µM in [1] is 7 mL/min/kg.
Consider `O=C(NCc1cccnc1)Nc1ccc(S(=O)(=O)N2CCC3(CCCN3)CC2)cc1`, for which the CLhep predicted at 1 µM in data set [1] was 7 mL/min/kg.
Consider `O=C(NCc1cccnc1)Nc1ccc(S(=O)(=O)N2CCC3(CCNC3)CC2)cc1`, for which the CLhep predicted at 1 µM was 4 mL/min/kg in [1], 44 mL/min/kg in [2] and 9.2 mL/min/kg in data set [3]. Moreover, the concentration in solution in data set [4] (solubility at 24 h, 100 µM) came to 75 µM (≈ 32.2 µg/mL). Moreover, the Papp A→B at 10 µM in data set [5] stood at 0.07 ×10⁻⁶ cm/s.
Take `O=C(NCc1cccnc1)Nc1ccc(S(=O)(=O)N2CCC3(CCNCC3)C2)cc1`: the CLhep predicted at 1 µM in data set [1] is 2 mL/min/kg.
For the molecule `O=C(NCc1cccnc1)Nc1ccc(S(=O)(=O)N2CCCNCC2)cc1`, in data set [1], the CLhep predicted at 1 µM is 6 mL/min/kg.
The same measure, in the same setting: the same measure for `O=C(NCc1cccnc1)Nc1ccc(S(=O)(=O)N[C@@H]2CCNC[C@H]2F)cc1`: 3 mL/min/kg.
With `CCN1CC[C@@H](NS(=O)(=O)c2ccc(NC(=O)NCc3cccnc3)cc2)[C@@H](F)C1`, in data set [1], the CLhep predicted at 1 µM is 6 mL/min/kg.
Take `N[C@H]1CC[C@H](NS(=O)(=O)c2ccc(NC(=O)NCc3cccnc3)cc2)CC1`: the CLhep predicted at 1 µM was 5 mL/min/kg in data set [1], 27 mL/min/kg in [2] and 6.3 mL/min/kg in [3]. The same molecule displayed a solubility at 24 h, 100 µM in data set [4] of 161 µM (≈ 65 µg/mL). The Papp A→B at 10 µM in data set [5] came out at 0.2 ×10⁻⁶ cm/s.
With `O=C(NCc1cccnc1)Nc1ccc(S(=O)(=O)N[C@H]2CC[C@H](O)CC2)cc1`, in [1], the CLhep predicted at 1 µM was 2 mL/min/kg.
`O=C(NCc1cccnc1)Nc1ccc(S(=O)(=O)N[C@H]2CCC[C@H](O)C2)cc1`: the figures for the CLhep predicted at 1 µM in [1], in data set [2] and in [3] were 4 mL/min/kg, 61 mL/min/kg and 19 mL/min/kg, respectively. Also, the solubility at 24 h, 100 µM in [4] stood at 136 µM (≈ 55 µg/mL). The apparent permeability from apical to basolateral (Papp A→B) at 10 µM in data set [5] was 0.1 ×10⁻⁶ cm/s.
`COc1ccc(CNC(=O)Nc2ccc(S(=O)(=O)c3ccccc3)cc2)cn1`: the CLhep predicted at 1 µM in data set [1] is 12 mL/min/kg.
As for `O=C(NCc1ccc(Cl)nc1)Nc1ccc(S(=O)(=O)c2ccccc2)cc1`, the CLhep predicted at 1 µM in data set [1] is 6 mL/min/kg.
Turning to `Nc1ccc(CNC(=O)Nc2ccc(S(=O)(=O)c3ccccc3)cc2)cn1`, the figures for the CLhep predicted at 1 µM in data set [1], in data set [2] and in [3] were 5 mL/min/kg, 42 mL/min/kg and 12 mL/min/kg, respectively. The Tmax in data set [6] came to 0.83 h. In addition, the maximum concentration (Cmax) in [7] was 2900 nM. The same molecule returned a solubility at 24 h, 100 µM in data set [4] of 109 µM (≈ 41.7 µg/mL). Besides, in [5], the apparent permeability from apical to basolateral (Papp A→B) at 10 µM was determined as 2.9 ×10⁻⁶ cm/s. For the same molecule, the clearance in [8] was found to be 4.9 mL/min/kg. Also, the Vd in data set [9] stood at 0.51 L/kg. The bioavailability in data set [10] was found to be 31%. The half-life was 2.6 h in data set [11] and 2.7 h in data set [12].
For the molecule `O=C(NCc1cncc(F)c1)Nc1ccc(S(=O)(=O)c2ccccc2)cc1`, the CLhep predicted at 1 µM in data set [1] is 8 mL/min/kg.
For the molecule `O=C(NCc1cccnn1)Nc1ccc(S(=O)(=O)c2ccccc2)cc1`, the CLhep predicted at 1 µM in [1] is 3 mL/min/kg.
On to `O=C(NCc1cnccn1)Nc1ccc(S(=O)(=O)c2ccccc2)cc1`, for which the CLhep predicted at 1 µM in data set [1] was 5 mL/min/kg.
Take `O=C(NCc1cncnc1)Nc1ccc(S(=O)(=O)c2ccccc2)cc1`: the CLhep predicted at 1 µM in data set [1] was 6 mL/min/kg.
Take `Nc1ncc(CNC(=O)Nc2ccc(S(=O)(=O)c3ccccc3)cc2)cn1`: the CLhep predicted at 1 µM in data set [1] was 3 mL/min/kg.
Consider `C[C@@H]1CN(S(=O)(=O)c2ccc(NC(=O)NCc3cccnc3)cc2)C[C@H](C)O1`, for which the CLhep predicted at 1 µM was 17 mL/min/kg in data set [1], 81 mL/min/kg in data set [2] and 55 mL/min/kg in data set [3]. In addition, in data set [4], the solubility at 24 h, 100 µM was found to be 112 µM (≈ 45.3 µg/mL). The apparent permeability from apical to basolateral (Papp A→B) at 10 µM in data set [5] came to 3.1 ×10⁻⁶ cm/s.
For the molecule `CC1CNCCN(S(=O)(=O)c2ccc(NC(=O)NCc3cccnc3)cc2)C1` (racemic), the CLhep predicted at 1 µM is 8 mL/min/kg in data set [1], 48 mL/min/kg in [2] and 16 mL/min/kg in [3]. Also, the solubility at 24 h, 100 µM in data set [4] was determined as 107 µM (≈ 43.2 µg/mL). The Papp A→B at 10 µM in [5] was 0.1 ×10⁻⁶ cm/s.
In the case of `CC1CCN(S(=O)(=O)c2ccc(NC(=O)NCc3cccnc3)cc2)CCN1` (racemic), the CLhep predicted at 1 µM in data set [1] was 5 mL/min/kg.
As to `O=C(NCc1cccnc1)Nc1ccc(S(=O)(=O)N2CCNC(C(F)(F)F)CC2)cc1` (racemic), the CLhep predicted at 1 µM in [1] was 18 mL/min/kg.
In the case of `C[C@@H]1COC[C@@H](C)N1S(=O)(=O)c1ccc(NC(=O)NCc2cccnc2)cc1` (racemic), in [1], the CLhep predicted at 1 µM is 17 mL/min/kg.
